{"source": "paper PMC5119973", "about": "(Cancer Medicine, 2016)", "key": {"[1]": {"biological_target": "T1, DDR2 (Homo sapiens, UniProt Q16832)", "T1 construct": "purchased DiscoveRx (KINOMEscan service)", "T1 sequence (Q16832 22-855)": "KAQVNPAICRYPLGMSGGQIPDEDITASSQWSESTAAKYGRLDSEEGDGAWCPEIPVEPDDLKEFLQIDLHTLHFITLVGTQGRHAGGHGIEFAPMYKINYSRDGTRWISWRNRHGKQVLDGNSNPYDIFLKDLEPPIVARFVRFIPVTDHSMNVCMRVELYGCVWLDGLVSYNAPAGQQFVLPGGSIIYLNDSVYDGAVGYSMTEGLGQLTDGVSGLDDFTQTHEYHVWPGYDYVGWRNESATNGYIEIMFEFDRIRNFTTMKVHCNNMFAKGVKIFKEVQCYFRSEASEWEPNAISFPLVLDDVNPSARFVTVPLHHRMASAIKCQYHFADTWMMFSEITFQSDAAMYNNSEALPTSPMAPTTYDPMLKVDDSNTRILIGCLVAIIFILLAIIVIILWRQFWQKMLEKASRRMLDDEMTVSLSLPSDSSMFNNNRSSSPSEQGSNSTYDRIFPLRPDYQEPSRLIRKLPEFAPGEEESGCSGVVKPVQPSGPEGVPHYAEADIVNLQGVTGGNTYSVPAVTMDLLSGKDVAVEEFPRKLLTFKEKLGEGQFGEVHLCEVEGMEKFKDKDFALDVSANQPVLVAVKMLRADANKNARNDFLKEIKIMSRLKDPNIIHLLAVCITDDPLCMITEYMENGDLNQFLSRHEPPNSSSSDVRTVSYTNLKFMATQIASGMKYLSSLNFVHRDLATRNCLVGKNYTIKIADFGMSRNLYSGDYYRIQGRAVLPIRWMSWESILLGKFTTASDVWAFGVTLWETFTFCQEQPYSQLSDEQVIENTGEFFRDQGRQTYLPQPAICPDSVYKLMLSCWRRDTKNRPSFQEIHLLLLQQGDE", "test": "KINOMEscan active-site competitive binding assay", "details": "slash = two separate measurements"}, "[2]": {"biological_target": "T2, SLK (Homo sapiens, UniProt Q9H2G2)", "T2 construct": "purchased DiscoveRx", "T2 sequence (Q9H2G2 whole entry)": "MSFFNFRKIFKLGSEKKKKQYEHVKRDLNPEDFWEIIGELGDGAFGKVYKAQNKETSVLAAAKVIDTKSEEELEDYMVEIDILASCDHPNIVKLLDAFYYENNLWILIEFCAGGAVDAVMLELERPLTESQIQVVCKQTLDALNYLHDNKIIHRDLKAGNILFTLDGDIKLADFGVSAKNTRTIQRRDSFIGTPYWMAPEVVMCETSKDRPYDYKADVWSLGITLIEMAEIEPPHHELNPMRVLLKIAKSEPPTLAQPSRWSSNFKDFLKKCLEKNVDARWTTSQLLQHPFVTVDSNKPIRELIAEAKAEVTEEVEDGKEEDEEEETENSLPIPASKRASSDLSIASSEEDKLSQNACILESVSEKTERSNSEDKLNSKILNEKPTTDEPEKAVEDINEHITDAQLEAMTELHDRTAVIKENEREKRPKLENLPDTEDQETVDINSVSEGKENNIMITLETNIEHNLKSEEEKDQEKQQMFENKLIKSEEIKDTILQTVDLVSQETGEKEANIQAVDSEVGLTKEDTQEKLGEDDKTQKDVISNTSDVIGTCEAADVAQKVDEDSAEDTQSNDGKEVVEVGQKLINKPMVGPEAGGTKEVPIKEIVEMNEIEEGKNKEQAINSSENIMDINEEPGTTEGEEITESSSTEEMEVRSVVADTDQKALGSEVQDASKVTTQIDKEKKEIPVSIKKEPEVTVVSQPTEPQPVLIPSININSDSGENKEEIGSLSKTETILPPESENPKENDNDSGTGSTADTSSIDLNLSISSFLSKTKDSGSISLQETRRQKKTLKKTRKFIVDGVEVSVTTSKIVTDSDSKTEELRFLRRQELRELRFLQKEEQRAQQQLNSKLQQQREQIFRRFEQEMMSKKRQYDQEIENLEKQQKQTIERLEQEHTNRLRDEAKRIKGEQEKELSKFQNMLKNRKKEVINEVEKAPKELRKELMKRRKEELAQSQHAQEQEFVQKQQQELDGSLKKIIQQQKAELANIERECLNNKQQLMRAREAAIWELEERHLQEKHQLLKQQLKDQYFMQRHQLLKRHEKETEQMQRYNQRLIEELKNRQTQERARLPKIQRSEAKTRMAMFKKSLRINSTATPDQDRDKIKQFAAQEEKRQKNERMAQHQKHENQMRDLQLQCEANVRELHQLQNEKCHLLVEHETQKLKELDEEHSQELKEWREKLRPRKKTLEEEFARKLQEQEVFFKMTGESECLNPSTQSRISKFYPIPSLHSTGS", "test": "KINOMEscan active-site competitive binding assay", "details": "slash = two separate measurements"}, "[3]": {"biological_target": "T3, EPHA6 (Homo sapiens, UniProt Q9UF33)", "T3 construct": "purchased DiscoveRx (KINOMEscan service)", "T3 sequence (Q9UF33 23-1036)": "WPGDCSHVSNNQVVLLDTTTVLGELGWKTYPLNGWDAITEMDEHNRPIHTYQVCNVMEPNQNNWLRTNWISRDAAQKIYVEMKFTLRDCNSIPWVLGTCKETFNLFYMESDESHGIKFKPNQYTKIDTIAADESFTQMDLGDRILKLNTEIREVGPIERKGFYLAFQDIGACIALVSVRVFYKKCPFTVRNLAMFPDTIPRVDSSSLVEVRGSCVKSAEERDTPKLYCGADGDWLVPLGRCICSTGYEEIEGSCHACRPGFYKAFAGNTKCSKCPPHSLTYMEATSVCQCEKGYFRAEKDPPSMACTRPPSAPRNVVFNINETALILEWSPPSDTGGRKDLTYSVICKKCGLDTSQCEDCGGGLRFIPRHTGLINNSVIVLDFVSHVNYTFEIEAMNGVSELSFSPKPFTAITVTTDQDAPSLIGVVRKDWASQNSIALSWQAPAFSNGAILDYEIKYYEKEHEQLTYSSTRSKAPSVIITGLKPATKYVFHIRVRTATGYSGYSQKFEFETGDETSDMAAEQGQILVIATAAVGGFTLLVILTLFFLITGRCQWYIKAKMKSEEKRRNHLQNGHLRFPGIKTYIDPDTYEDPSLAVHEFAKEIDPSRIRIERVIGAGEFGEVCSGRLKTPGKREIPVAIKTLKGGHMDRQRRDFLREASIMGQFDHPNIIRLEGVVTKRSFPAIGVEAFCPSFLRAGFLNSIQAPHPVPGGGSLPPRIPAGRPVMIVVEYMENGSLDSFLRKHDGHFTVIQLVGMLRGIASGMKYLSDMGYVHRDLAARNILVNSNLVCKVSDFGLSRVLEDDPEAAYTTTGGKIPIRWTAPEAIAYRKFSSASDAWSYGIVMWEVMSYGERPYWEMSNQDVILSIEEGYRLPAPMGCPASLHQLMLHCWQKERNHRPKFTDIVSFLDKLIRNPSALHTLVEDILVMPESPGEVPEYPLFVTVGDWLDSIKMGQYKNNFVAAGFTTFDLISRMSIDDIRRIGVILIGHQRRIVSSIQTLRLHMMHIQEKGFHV", "test": "KINOMEscan active-site competitive binding assay", "details": "slash = two separate measurements"}, "[4]": {"tested_on": "EGFR family kinases, the protein kinase C family, insulin and insulin‐like growth factor receptor kinases, MET, MEK family kinases (with the exception of …)", "test": "KINOMEscan active-site competitive binding assay, kinases not inhibited", "details": "concentrations up to 1 μmol/L; data not shown"}, "[5]": {"biological_target": "T4, EPHA8 (Homo sapiens, UniProt P29322)", "T4 construct": "purchased DiscoveRx (KINOMEscan service)", "T4 sequence (P29322 28-1005)": "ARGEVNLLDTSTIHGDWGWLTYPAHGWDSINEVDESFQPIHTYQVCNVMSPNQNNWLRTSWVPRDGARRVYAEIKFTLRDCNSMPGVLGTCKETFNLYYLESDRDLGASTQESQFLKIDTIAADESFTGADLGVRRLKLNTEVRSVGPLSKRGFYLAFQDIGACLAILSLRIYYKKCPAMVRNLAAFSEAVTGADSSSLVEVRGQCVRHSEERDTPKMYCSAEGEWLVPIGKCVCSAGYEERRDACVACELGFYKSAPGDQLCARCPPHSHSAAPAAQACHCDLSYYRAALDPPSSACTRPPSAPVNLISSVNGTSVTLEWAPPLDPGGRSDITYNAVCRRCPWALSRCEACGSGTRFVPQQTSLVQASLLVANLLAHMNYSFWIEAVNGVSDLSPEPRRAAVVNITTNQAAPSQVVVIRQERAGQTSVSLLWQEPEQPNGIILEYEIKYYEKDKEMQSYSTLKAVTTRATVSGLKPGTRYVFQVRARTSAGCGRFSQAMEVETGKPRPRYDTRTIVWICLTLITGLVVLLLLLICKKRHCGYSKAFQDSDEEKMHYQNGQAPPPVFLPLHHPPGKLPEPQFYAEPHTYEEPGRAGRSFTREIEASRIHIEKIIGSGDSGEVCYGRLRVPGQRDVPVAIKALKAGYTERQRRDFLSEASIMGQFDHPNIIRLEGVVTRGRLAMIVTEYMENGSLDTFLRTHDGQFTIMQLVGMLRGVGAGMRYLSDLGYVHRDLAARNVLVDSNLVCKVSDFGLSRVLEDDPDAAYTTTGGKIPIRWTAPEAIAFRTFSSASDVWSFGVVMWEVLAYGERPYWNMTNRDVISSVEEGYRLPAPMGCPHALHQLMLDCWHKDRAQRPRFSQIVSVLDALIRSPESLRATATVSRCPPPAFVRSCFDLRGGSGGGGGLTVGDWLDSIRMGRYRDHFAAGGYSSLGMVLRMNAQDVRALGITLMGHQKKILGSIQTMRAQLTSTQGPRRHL", "test": "KINOMEscan active-site competitive binding assay", "details": "slash = two separate measurements"}}, "note": "Where “and” joins values, the source holds several entries; their conditions need not be identical. Identical values can stand only once."}
{"smiles": "CNC(=O)c1cc(Oc2ccc(NC(=O)Nc3ccc(Cl)c(C(F)(F)F)c3)c(F)c2)cc[n+]1[O-]", "note": "[M‐2]", "values": [{"measurement": "Kd", "setting": "[1]", "value": 5.3, "unit": "nM"}, {"measurement": "Kd", "setting": "[2]", "value": 64, "unit": "nM"}, {"measurement": "Kd", "setting": "[3]", "value": 210, "unit": "nM"}, {"measurement": "Inhibition of binding", "setting": "[4]", "value": "No inhibition"}, {"measurement": "Kd", "setting": "[5]", "value": 61, "unit": "nM"}]}
{"smiles": "NC(=O)c1cc(Oc2ccc(NC(=O)Nc3ccc(Cl)c(C(F)(F)F)c3)c(F)c2)cc[n+]1[O-]", "note": "[M‐5]", "values": [{"measurement": "Kd", "setting": "[1]", "value": 2.5, "unit": "nM"}, {"measurement": "Kd", "setting": "[2]", "value": 100, "unit": "nM"}, {"measurement": "Kd", "setting": "[3]", "value": 640, "unit": "nM"}, {"measurement": "Inhibition of binding", "setting": "[4]", "value": "No inhibition"}, {"measurement": "Kd", "setting": "[5]", "value": 73, "unit": "nM"}]}
{"smiles": "CNC(=O)c1cc(Oc2ccc(NC(=O)Nc3ccc(Cl)c(C(F)(F)F)c3)c(F)c2)ccn1", "note": "[Regorafenib, reference compound]", "values": [{"measurement": "Kd", "setting": "[1]", "value": "9.2 nM and 9.7 nM"}, {"measurement": "Kd", "setting": "[2]", "value": "120 nM and 98 nM"}, {"measurement": "Kd", "setting": "[3]", "value": "48 nM and 23 nM"}, {"measurement": "Inhibition of binding", "setting": "[4]", "value": "No inhibition"}, {"measurement": "Kd", "setting": "[5]", "value": "140 nM and 130 nM"}]}
